Values of other authors in article PMC7946228, “Discovery of novel candidates for anti-liposarcoma therapies by medium-scale high-throughput drug screening” (PLoS ONE, 2021).

System: all cancer cell lines (NCI-60)
Design: method as in NCI-60 project
Details: ref NCI-60 project; cited from earlier work

In the case of `CC(C)[C@]12O[C@H]1[C@@H]1O[C@]13[C@]1(O[C@H]1C[C@H]1C4=C(CC[C@@]13C)C(=O)OC4)[C@@H]2O` [Triptolide], the IC50 is given as 12 nM.
